This passage reports GI50 and TGI results from PubChem BioAssay (NCI).

Experiment in all cases: NCI anticancer screen, dose series, 48 h
The test system of assay [1] is SNB-19 CNS.
Assay [2] has as its system NCI-H226 lung.
In assay [3] the test system is MDA-MB-435.
Assay [4] relates to SK-OV-3 ovarian.
In assay [5] the test system is HOP-62 NSCLC.
The test system of assay [6] is COLO 205 colon.
Assay [7] concerns CCRF-CEM leukemia.
The subject of assay [8] is SN12C renal.
In assay [9] the test system is SW-620 colon.
Assay [10] deals with PC-3 prostate.

Molecules are shown by their SMILES. Several values for one entry are separate records, joined by “and”; a condition that tells them apart may be missing. Equal entries are not always repeated.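 Grown in 96-well plates, cells were treated for 48 hours with each compound at five concentrations. Insufficient inhibition: endpoint recorded as highest concentration tested. GI50 marks 50% less growth. TGI: total growth inhibition.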

In the case of `C[C@@H](Oc1cc(-n2cnc3ccc(OC4CCN(C)CC4)cc32)sc1C(N)=O)c1ccccc1Cl`, the GI50 in [1] is 0.07 µM; in [2] it was 0.289 µM; in [3] it was 0.00549 µM; in assay [4] it was 0.0216 µM; in assay [5] it was 0.0166 µM; in assay [6], 0.00926 µM. The GI50 in assay [7] is 0.00953 µM; in assay [8] it was 0.255 µM; in assay [9], 0.00875 µM; in assay [10] it was 0.0153 µM. Besides, the TGI in assay [1] came to 13.2 µM; in [2] it was 5.49 µM; in assay [3], 0.0159 µM; in assay [4], 2.8 µM; in assay [5], 3.29 µM; in assay [6], 0.106 µM. Moreover, the TGI in [7] worked out at 4.19 µM; in assay [8], 4.75 µM; in assay [9] it was 3.48 µM; in assay [10], 6.02 µM.
For `COC(=O)[C@@H]1c2cc3c(c(O)c2[C@@H](OC2OC(C)C(OC)C(C)(OC)C2OC)C[C@]1(C)O)C(=O)c1c(O)cc2c(c1C3=O)O[C@H]1O[C@]2(C)[C@H](O)[C@@H](N(C)C)[C@@H]1O` (stereo not given in full), the TGI in [1] was 11.1 µM; in assay [2] it was 0.0718 µM and 0.0966 µM; in assay [3], 0.188 µM; in assay [4], 4.94 µM; in [5] it was 0.328 µM and 0.0435 µM; in assay [6], 0.0351 µM. Also, the TGI is 0.198 µM and 0.258 µM in assay [7]; 2 µM in assay [8]; 0.292 µM and 1.37 µM in assay [9]; 0.297 µM in assay [10].
Regarding `Oc1c(Cl)cc(Cl)c(Cl)c1CNCCNCc1c(O)c(Cl)cc(Cl)c1Cl`, the GI50 was 1.49 µM in assay [1]; 4.1 µM in assay [2]; 1.58 µM in assay [3]; 1.48 µM in [4]; 0.894 µM in assay [5]; 1.09 µM in assay [6]. In addition, the GI50 in assay [7] was 0.231 µM; in [8], 2.02 µM; in assay [9], 1.71 µM; in assay [10], 1.92 µM. Also, the TGI was 11.3 µM in assay [1]; 18.1 µM in [2]; 9.87 µM in [3]; 7.7 µM in assay [4]; 8.3 µM in assay [5]; greater than 50 µM in assay [6]. In addition, the TGI is greater than 50 µM in assay [7], 17.9 µM in [8], greater than 50 µM in assay [9] and 11.1 µM in assay [10].
As for `Fc1ccc(-c2c(-c3ccncc3)nc3n2CCS3)cc1`, the GI50 in assay [1], in assay [2], in assay [3], in [4], in assay [5] and in assay [6] was greater than 25 µM in each case. Besides, the GI50 in assay [7], in assay [8], in [9] and in assay [10] was greater than 25 µM each time. Moreover, the TGI in assay [1], in assay [2], in [3], in assay [4], in assay [5] and in assay [6] was greater than 25 µM throughout. In addition, the TGI in assay [7], in assay [8], in assay [9] and in [10] was greater than 25 µM each time.
On to `CNC(=O)c1ccc(N2C(=S)N(c3cnc(C#N)c(C(F)(F)F)c3)C(=O)C23CCC3)cc1F`, for which the GI50 in [1], in assay [2], in assay [3], in assay [4], in assay [5] and in assay [6] was greater than 100 µM throughout. Also, the GI50 in assay [7], in assay [8], in [9] and in assay [10] was greater than 100 µM throughout. In addition, the TGI in [1], in [2], in [3], in assay [4], in [5] and in assay [6] was greater than 100 µM each time. In addition, the TGI in assay [7], in assay [8], in assay [9] and in assay [10] was greater than 100 µM throughout.
Turning to `O=c1oc2ccc(I)cc2c(=O)n1-c1ccc(Br)cc1F`, the GI50 in [1] was 0.434 µM; in [2] it was 1.27 µM; in [3] it was 0.938 µM; in assay [4], 0.614 µM; in assay [5], 1.83 µM; in assay [6], 3.19 µM. Also, the GI50 in [7] was 1.93 µM; in assay [8], 0.546 µM; in [9] it was 1.1 µM; in [10], 1.94 µM. Moreover, the TGI in assay [1] is greater than 63.5 µM; in assay [2], 4.39 µM; in [3], 6.42 µM; in assay [4] it was 2.97 µM; in assay [5], 6.65 µM; in [6] it was 11.6 µM. Also, the TGI in assay [7] amounted to 10.4 µM; in [8] it was 5.7 µM; in assay [9], 9.68 µM; in assay [10], 6.89 µM.
As to `CCc1cccc(C(C)C)c1NC(=O)C(=O)C1C(=O)Nc2ccccc2S1=O` (stereo not given), the TGI in assay [1], in assay [2], in assay [3], in assay [4], in assay [5] and in assay [6] was greater than 100 µM in each case. Further, the TGI in assay [7], in [8], in assay [9] and in [10] was greater than 100 µM in each case.
As to `COc1ccc(Nc2nc3cc(N)cc(N)c3nc2-c2ccccc2)cc1`, the GI50 was 33.8 µM in assay [1]; 23.8 µM in assay [2]; 16.5 µM in [3]; 32.8 µM in assay [4]; 27.6 µM in assay [5]; 15.7 µM in [6]. For the same compound, the GI50 in assay [7] is 12 µM; in assay [8], 20.6 µM; in assay [9], 22.5 µM; in assay [10], 20.9 µM. Moreover, the TGI in [1] was greater than 100 µM; in assay [2], 98.4 µM; in assay [3], 30.1 µM; in [4] it was 97.5 µM; in [5] it was greater than 100 µM; in assay [6] it was 29.2 µM. The TGI in assay [7] is greater than 100 µM; in assay [8] it was 57.4 µM; in assay [9] it was 37 µM; in [10], 47.6 µM.
In the case of `COc1cc(/C=C/c2cc(/C=C/c3ccc(O)c(OC)c3)n(C(=O)c3ccc(Cl)cc3)n2)ccc1O`, the GI50 was 2.8 µM in assay [1]; 3.51 µM in assay [2]; 0.449 µM in assay [3]; 1.83 µM in [4]; 2.08 µM in assay [5]; 3.78 µM in assay [6]. In addition, the GI50 is 1.64 µM in assay [7], 2.35 µM in [8], 3.12 µM in assay [9] and 2.66 µM in assay [10]. Also, the TGI in [1] is 12.1 µM; in assay [2], 23.2 µM; in assay [3], 10.7 µM; in assay [4], 4.35 µM; in assay [5], 6.92 µM; in assay [6], 13.4 µM. Also, the TGI is greater than 100 µM in assay [7], 13 µM in [8], 13.8 µM in [9] and 15.5 µM in assay [10].
`CC[C@H](C)[C@H](NC(=O)[C@H]1CCCCN1C)C(=O)N(C)[C@H](C[C@@H](OC(C)=O)c1cccc(C(=O)N[C@@H](Cc2ccccc2)C[C@H](C)C(=O)OC)n1)C(C)C`: the GI50 in [1] is 0.00461 µM and 0.0025 µM; in assay [2] it was 0.456 µM and 0.0514 µM; in [3], 0.00028 µM; in [4], 0.00308 µM and 0.00314 µM; in [5], 0.0065 µM and 0.00427 µM; in assay [6], 0.00182 µM and 0.0025 µM. In addition, the GI50 in assay [7] is 0.00495 µM and 0.0025 µM; in assay [8], 0.00567 µM and 0.0113 µM; in assay [9], 0.00317 µM and 0.0025 µM; in assay [10] it was 0.0032 µM and 0.0025 µM. Also, the TGI was greater than 25 µM in assay [1]; greater than 25 µM in assay [2]; 0.00143 µM in assay [3]; greater than 25 µM in assay [4]; greater than 25 µM in assay [5]; 0.0132 µM and 0.00446 µM in assay [6]. Also, the TGI in assay [7], in assay [8], in assay [9] and in [10] was greater than 25 µM each time.
In the case of `C/C=C(\C)c1cc(=O)c2c(C)cc3c(c2o1)C(=O)c1c(O)c(C2CC(C)(N(C)C)C(OC(C)=O)C(C)O2)cc(C2CC(N(C)C)C(O)C(C)O2)c1C3=O` (stereo not given), the TGI in [1] is 10.9 µM; in [2] it was 5.57 µM; in [3], 3.45 µM; in assay [4], greater than 50 µM; in assay [5], 6.45 µM; in assay [6], 3.05 µM. The TGI was greater than 50 µM in assay [7], 8.81 µM in assay [8], greater than 27.7 µM in assay [9] and 7.83 µM in assay [10].
Consider `COc1ccc(C2(Cl)c3ccccc3N(c3ccccc3)c3ccccc32)cc1`, for which the GI50 in [1] was 0.637 µM; in assay [2] it was 1.01 µM; in assay [3], 0.242 µM; in assay [4], 0.495 µM; in assay [5], 0.411 µM; in assay [6], 0.421 µM. In addition, the GI50 in assay [7] was 1.99 µM; in assay [8], 0.232 µM; in assay [9], 0.37 µM; in assay [10] it was 0.238 µM. The TGI was 2.43 µM in [1]; 3.55 µM in assay [2]; 1.56 µM in assay [3]; 2.74 µM in [4]; 2.76 µM in assay [5]; 2.45 µM in assay [6]. Moreover, the TGI was 13.8 µM in assay [7], 1.22 µM in assay [8], 1.69 µM in assay [9] and 4.11 µM in [10].
